Measured values from patent US8791132B2, “Compounds and methods for treatment of hypertension” (Medivation Technologies, Inc., priority 2011, dated 2014).
Values joined by “and” are separate entries in the source; they are usually repeats but may differ in a detail not shown here. Equal entries are not always repeated.

How the values were obtained:
[1] = target: T1, human recombinant adrenergic α2B receptor (Homo sapiens, UniProt P18089); assay: Radioligand binding, adrenergic α2B ([3H]Rauwolscine); details: for inhibition at 0.03 µM: read-out: Percentage inhibition of ligand binding, Adrenergic α2B (0.03 μM), compound at 0.03 μM; for inhibition at 0.03 µM / Percentage inhibition of ligand binding, Adrenergic α2B (0.03 μM): [3H]Rauwolscine, repeat datapoints each shown; for Percentage inhibition of ligand binding, Adrenergic α2B (0.03 μM): compound at 0.03 μM; for Ki: read-out: Ki α2B
T1 construct: expressed in transfected cells; host or cells: CHO-K1
T1 sequence (P18089 1-450): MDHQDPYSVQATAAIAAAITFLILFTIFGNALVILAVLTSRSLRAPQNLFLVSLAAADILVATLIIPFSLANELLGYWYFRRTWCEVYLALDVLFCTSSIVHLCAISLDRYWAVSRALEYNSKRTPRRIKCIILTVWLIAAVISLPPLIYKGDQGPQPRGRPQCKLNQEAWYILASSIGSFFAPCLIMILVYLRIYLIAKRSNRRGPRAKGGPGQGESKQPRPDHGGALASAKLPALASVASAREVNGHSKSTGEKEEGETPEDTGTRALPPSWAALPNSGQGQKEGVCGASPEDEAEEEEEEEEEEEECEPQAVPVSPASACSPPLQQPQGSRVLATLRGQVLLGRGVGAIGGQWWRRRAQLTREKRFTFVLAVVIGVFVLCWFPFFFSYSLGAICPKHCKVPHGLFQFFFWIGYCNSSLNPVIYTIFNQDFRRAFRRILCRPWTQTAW
In short: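 Assay used CHO-K1-expressed human α2B receptor in Tris-HCl pH 7.4 buffer with MgCl2, EDTA and BSA; 60 min incubation at 25 °C.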

[2] = target: T2, rat adrenergic α1B receptor (Rattus norvegicus, UniProt P15823); assay: Radioligand binding, adrenergic α1B ([3H]Prazosin); details: for inhibition at 0.1 µM: read-out: Percentage inhibition of ligand binding, Adrenergic α1B (0.1 μM), compound at 0.1 μM; for inhibition at 0.1 µM / inhibition at 0.03 µM / Percentage inhibition of ligand binding, Adrenergic α1B (0.1 μM): [3H]Prazosin, repeat datapoints each shown; for inhibition at 0.03 µM: read-out: Percentage inhibition of ligand binding, Adrenergic α1B (0.03 μM), compound at 0.03 μM; for Percentage inhibition of ligand binding, Adrenergic α1B (0.1 μM): compound at 0.1 μM
T2 construct: rat adrenergic α1B receptor obtained from Wistar Rat liver; from tissue; host or cells: Wistar rat liver
T2 sequence (P15823 1-515): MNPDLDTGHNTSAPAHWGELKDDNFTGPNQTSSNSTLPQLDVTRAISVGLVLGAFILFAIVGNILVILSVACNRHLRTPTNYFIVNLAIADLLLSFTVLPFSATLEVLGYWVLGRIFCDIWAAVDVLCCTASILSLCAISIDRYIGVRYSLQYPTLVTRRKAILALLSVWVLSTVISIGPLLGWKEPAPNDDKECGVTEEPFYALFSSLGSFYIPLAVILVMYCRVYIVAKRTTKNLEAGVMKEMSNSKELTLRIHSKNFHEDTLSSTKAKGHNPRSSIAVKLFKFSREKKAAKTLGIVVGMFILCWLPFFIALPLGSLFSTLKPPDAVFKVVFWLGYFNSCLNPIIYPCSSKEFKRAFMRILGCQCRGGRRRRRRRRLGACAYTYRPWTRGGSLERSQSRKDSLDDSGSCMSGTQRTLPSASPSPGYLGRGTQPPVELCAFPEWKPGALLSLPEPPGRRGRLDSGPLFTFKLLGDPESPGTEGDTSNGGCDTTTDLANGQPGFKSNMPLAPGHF
In short: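 Specific binding, taken as total minus that remaining with 10 μM phentolamine, is measured after filtration and counting. Rat liver receptor preparation and 0.25 nM [3H]prazosin are incubated with compound in 50 mM Tris-HCl (pH 7.4, 0.5 mM EDTA) at 25° C for 60 min. Activity is reported as percent inhibition.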

[3] = target: T3, human recombinant adrenergic α2A receptor (Homo sapiens, UniProt P08913); assay: Radioligand binding, adrenergic α2A ([3H]MK-912); details: for Percentage inhibition of ligand binding, Adrenergic α2A (0.1 μM): compound at 0.1 μM; for Percentage inhibition of ligand binding, Adrenergic α2A (0.1 μM) / inhibition at 0.03 µM / inhibition at 0.1 µM: [3H]MK-912, repeat datapoints each shown; for inhibition at 0.03 µM: read-out: Percentage inhibition of ligand binding, Adrenergic α2A (0.03 μM), compound at 0.03 μM; for inhibition at 0.1 µM: read-out: Percentage inhibition of ligand binding, Adrenergic α2A (0.1 μM), compound at 0.1 μM
T3 construct: expressed in transfected cells; host or cells: insect Sf9 cells
T3 sequence (P08913 1-465): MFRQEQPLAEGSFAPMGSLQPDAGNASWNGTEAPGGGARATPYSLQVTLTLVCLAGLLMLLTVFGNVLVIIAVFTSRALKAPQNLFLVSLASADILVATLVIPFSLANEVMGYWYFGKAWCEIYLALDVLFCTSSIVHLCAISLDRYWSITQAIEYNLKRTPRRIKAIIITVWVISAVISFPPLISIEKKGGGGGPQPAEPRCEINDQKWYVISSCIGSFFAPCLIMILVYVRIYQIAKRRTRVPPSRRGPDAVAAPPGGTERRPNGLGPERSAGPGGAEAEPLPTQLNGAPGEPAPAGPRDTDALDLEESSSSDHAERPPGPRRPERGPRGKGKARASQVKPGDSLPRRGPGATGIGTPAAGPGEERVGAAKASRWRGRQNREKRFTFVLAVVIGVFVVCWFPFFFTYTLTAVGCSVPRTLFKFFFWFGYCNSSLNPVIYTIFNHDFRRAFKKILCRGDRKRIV
In short: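 Sf9 membranes, 1 nM [3H]MK-912, 60 min, 25 °C, Tris-HCl pH 7.4/MgCl2/EDTA buffer. NSB: 10 μM WB-4101. Filtration, counting; % inhibition of specific binding.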

| Compound | inhibition at 0.03 µM [1] [%] | inhibition at 0.1 µM [2] [%] | Ki [3] [nM] | Percentage inhibition of ligand binding, Adrenergic α2A (0.1 μM) ([3]; 0.1 µM) | inhibition at 0.03 µM [3] [%] | inhibition at 0.1 µM [3] [%] | Percentage inhibition of ligand binding, Adrenergic α2B (0.03 μM) ([1]; 0.03 µM) [%] | Percentage inhibition of ligand binding, Adrenergic α1B (0.1 μM) ([2]; 0.1 µM) [%] | further results |
| --- | --- | --- | --- | --- | --- | --- | --- | --- | --- |
| Cc1ccc(C(O)Cn2c3c(c4cc(C)ccc42)CN(C)CC3)cc1 (single isomer, unassigned) [183b, 2-(1,2,3,4-tetrahydro-2,8-dimethylpyrido[4,3-b]indol-5-yl)-1-p-tolylethanol] | 98 | 93 | 2.72 | 97% | 84 | 93 |  |  |  |
| C/C(=C\n1c2c(c3cc(C)ccc31)C1CCCN1CC2)c1ccc(C)nc1 (single isomer, unassigned) [193b, 10-methyl-7-(2-(6-methylpyridin-3-yl)prop-1-enyl)-2,3,5,6,7,11c-hexahydro-1H-indolizino[7,8-b]indole] | 104 | 91 |  |  |  | 83 |  |  |  |
| C/C(=C\n1c2c(c3cc(C)ccc31)C1CCCN1CC2)c1ccc(F)cc1 (single isomer, unassigned) [194b, 7-(2-(4-fluorophenyl)prop-1-enyl)-10-methyl-2,3,5,6,7,11c-hexahydro-1H-indolizino[7,8-b]indole] | 103 | 100 |  |  |  | 94 |  |  |  |
| Cc1ccc2c(c1)c1c(n2CC(C)(O)c2ccc(C)nc2)CN(C)CC1 (single isomer, unassigned) [196a] | 93 | 54.6 | 16.8 | 71% | 37 | 58 | 103 |  | Ki [1]: 1.83 nM; inhibition at 0.03 µM [2]: 30% |
| Cc1ccc2c(c1)c1c(n2CCc2ccc(C)nc2)CCN2CCCC12 (single isomer, unassigned) [197b, 9-methyl-6-[2-(6-methyl-pyridin-3-yl)-ethyl]-2,3,4,5,6,10c-hexahydro-1H-3a, 6-diaza-cyclopenta[c]fluorene] | 101 | 96 | 11.9 | 56% and 77% | 50 |  | 105 |  | Ki [1]: 0.78 nM; inhibition at 0.03 µM [2]: 89% |
| Cc1ccc2c(c1)c1c(n2CC(O)c2ccc(C)nc2)CCN2CCCC12 (single isomer, unassigned) [198a, 2-(9-methyl-1,2,3,4,5,10c-hexahydro-3a,6-diaza-cyclopenta[c]fluoren-6-yl)-1-(6-methyl-pyridin-3-yl)-ethanol] |  |  |  | 10% |  |  | 47 | 24 |  |
| Cc1ccc2c(c1)c1c(n2CC(O)c2ccc(C)nc2)CCN2CCCC12 (single isomer, unassigned) [198b, 2-(9-methyl-1,2,3,4,5,10c-hexahydro-3a,6-diaza-cyclopenta[c]fluoren-6-yl)-1-(6-methyl-pyridin-3-yl)-ethanol] |  |  |  | 44% |  |  | 103 | 84 |  |
| CCN1CCc2c(c3cc(C)ccc3n2CC(O)c2ccc(C)cc2)C1 (single isomer, unassigned) [203a] |  |  |  | 71% |  |  | 36 | 76 |  |
| CCN1CCc2c(c3cc(C)ccc3n2CC(O)c2ccc(C)cc2)C1 (single isomer, unassigned) [203b] |  |  |  | 31% |  |  | 24 | 47 |  |
| CC(=O)NC(Cn1c2c(c3cc(C)ccc31)CN(C)CC2)c1ccncc1 (single isomer, unassigned) [II-1a, N-(2-(1,2,3,4-tetrahydro-2,8-dimethylpyrido[4,3-b]indol-5-yl)-1-(pyridin-4-yl)ethyl)acetamide] |  |  |  |  |  |  |  |  | Percentage inhibition of ligand binding, Adrenergic α2B ([1]; 0.03 μM compound, 0.03 µM): 14%; Percentage inhibition of ligand binding, Adrenergic α1B ([2]; 0.1 μM compound, 0.1 µM): 6%; Percentage inhibition of ligand binding, Adrenergic α2A ([3]; 0.1 μM compound, 0.1 µM): 15% |
